Data set [1] relates to astrocytes, microglia or macrophages. An excerpt:
Cell viability Cytotoxic effects of the inhibitors were deter-mined by measuring the cell viability by Trypan blue exclusion.

The next data set has as its system NF-kβ. The format is cell-based, rat. The procedure:
Preparation of Nuclear Extracts and Electrophoretic Mobility shift assay Nuclear extracts from stimulated or unstimulated astrocytes (1×10^7 cells) were prepared using the method of Dignam et al. (1983) with slight modification. Cells were harvested, washed twice with ice-cold phosphate-buffered saline and lysed in 400 μl of buffer A (10 mM HEPES, pH 7.9, 10 mM KCl, 2 mM MgCl2, 0.5 mM DTT, 1 mM PMSF, 5 μg/ml aprotinin, 5 μg/ml pepstatin A, and 5 μg/ml leupeptin (Sigma, St. Louis, Mo.) containing 0.1% Nondet P-40 for 15 min on ice, vortexed vigorously for 15 s, and centrifuged at 14,000 rpm for 30 s. The pelleted nuclei were resuspended in 40 μl of buffer B (20 mM HEPES, pH 7.9, 25% (v/v) glycerol, 0.42 M NaCl, 1.5 mM MgCl2, 0.2 mM EDTA, 0.5 mM DTT, 1 mM PMSF, 5 μg/ml aprotinin, 5 μg/ml pepstatin A, and 5 μg/ml leupeptin). After 30 min on ice, lysates were centrifuged at 14,000 rpm for 10 min. Supernatants containing the nuclear proteins were diluted with 20 μl of modified buffer C (20 mM HEPES, pH 7.9, 20% (v/v) glycerol, 0.05 M KCl, 0.2 mM EDTA, 0.5 mM DTT, and 0.5 mM PMSF) and stored at −70° C. until use. Nuclear extracts were used for the electrophoretic mobility shift assay using the NF-kβ DNA binding protein detection system kit (GIBCO/BRL), according to the manufacturer's protocol.
Preparation of nuclear extracts and electrophoretic mobility shift assay Nuclear extracts from stimulated or unstimulated astrocytes (1×10^7 cells) were prepared as described (Dignam et al., 1983) with slight modification. Cells were harvested, washed twice with ice-cold phosphate-buffered saline and lysed in 400 μl of buffer A (10 mM HEPES, pH 7.9, 10 mM KCl, 2 mM MgCl2, 0.5 mM DTT, 1 mM PMSF, 5 μg/ml aprotinin, 5 μg/ml pepstatin A, and 5 μg/ml leupeptin) containing 0.1% Nonidet P40 for 15 min on ice, vortexed vigorously for 15 s, and centrifuged at 14,000 rpm for 30 s. […]

The subject of data set [2] is TNF-α production in rat resident macrophages. As to the kind of experiment: LPS-/IFN-γ-induced TNF-α production (ELISA) in rat macrophages. To be noted: for inhibition at 20000 µM: Rattus norvegicus, Macrophage. Type of data set: cell-based. Here is the method: Resident macrophages cultured in serum-free RPMI 1640 medium received 20 mM NAC or 100 μM PDTC 2 h before the addition of stimuli. When stimuli were used separately their concentrations were: LPS, 1.0 μg/ml; IFN-γ, 200 U/ml, and when they were used together, their concentrations were: LPS, 0.2 μg/ml; IFN-γ, 50 U/ml. Supernatants were collected 24 h after the addition of stimuli to measure TNF-α concentration using ELISA as described.
(ELISA stands for enzyme-linked immunosorbent assay.)

The conditions of data set [3]: in vivo; cited from earlier work.

Like-named read-outs stand apart in the source and are kept apart here.

Consider `CC[C@H](C)C(=O)O[C@H]1C[C@@H](C)C=C2C=C[C@H](C)[C@H](CC[C@@H]3C[C@@H](O)CC(=O)O3)[C@H]21` [Lovastatin], for which the “viability (trypan blue exclusion)” value in data set [1] is listed as “had no effect on the viability of astrocytes, microglia, or macrophages”; in data set [1] (rat), “none of the compounds lovastatin, mevastatin, NaPA, TNF-α, IL-1β, IFN-γ, or LPS had a significant effect on the viability”. The “LPS-induced activation of NF-kβ” value with NF-kβ (LPS 1.0 μg/ml, 1 h) is on record as “markedly inhibited for the LPS-induced activation of NF-kβ”.
Consider `CC(=O)N[C@@H](CS)C(=O)O` [NAC, N-acetyl cysteine], for which the TNF-α is recorded as 2.3 ± 0.2 ng/24 h/mg protein in data set [2] (LPS 0.2 μg/ml + IFN-γ 50 U/ml, 20 mM NAC or 100 μM PDTC 2 h before, 24 h); 1.6 ± 0.3 ng/24 h/mg protein in data set [2] (LPS 1.0 μg/ml, 20 mM NAC or 100 μM PDTC 2 h before, 24 h); 0.6 ± 0.2 ng/24 h/mg protein in data set [2] (antioxidant alone (20 mM NAC or 100 μM PDTC), no stimulus). Also, the inhibition (as a rule, the change of the read-out against control, counted positive when it falls) at 20000 µM in data set [2] (LPS 0.2 μg/ml + IFN-γ 50 U/ml, 20 mM NAC or 100 μM PDTC 2 h before) is 93%; in data set [2] (LPS 1.0 μg/ml, 20 mM NAC or 100 μM PDTC 2 h before), 92%.
For `O=C([O-])Cc1ccccc1.[Na+]` [NaPA, sodium salt of phenylacetic acid], in the data set on NF-kβ, the “LPS-induced activation of NF-kβ” value was “markedly inhibited for the LPS-induced activation of NF-kβ”. The “cytotoxicity at higher doses” value in the data set with X-ALD fibroblasts was “cytotoxic to the X-ALD fibroblasts”. In addition, the pharmacologically attainable concentration in data set [3] was 1 to 5 mM.

The values above are taken from patent US8507219B2, “Method of treating inflammation with statins” (MUSC Foundation for Research Development, priority 1997, dated 2013).
